Laboratory results as given in PMC9841533, “Microtubule-Stabilizing 1,2,4-Triazolo[1,5-a]pyrimidines as Candidate Therapeutics for Neurodegenerative Disease: Matched Molecular Pair Analyses and Computational Studies Reveal New Structure–Activity Insights” (Journal of Medicinal Chemistry, 2022).

Tests used:
[1] = Resazurin cell viability assay, QBI293; type: cell-based; conditions: human, QBI293 cells, three biological replicates, read-out: QBI293 CC50 ± SD
Method: (§1) Cell Culture. QBI293 and HeLa cells were cultured in DMEM supplemented with 10% heat-
(§2) inactivated FBS and 1% penicillin-streptomycin. Cells were grown in T175 cell culture flasks maintained
(§3) at 37 ℃ in 5% CO2 and sub-c ultured when at 60-8 0% cell confluence.
(§4) Resazurin Cell Viability Assay. Cytotoxicity in QBI293 and HeLa cells was measured using the
(§5) resazurin cell viability assay.1 Test compounds were serially diluted in DMSO and added to 96-well
(§6) polystyrene assay plates to give final assay concentrations ranging from 100 nM to 4000 nM (1 µL; 1%
(§7) total DMSO). Fresh medium was added to the assay plate (49 µL/well). QBI293 or HeLa cells were
(§8) cells/well. Assay plates were incubated at 37 °C and 5% CO2 for 48 h, followed by addition of 20 µL 0.5
(§9) mM resazurin (Alfa Aesar, Cat. B21187) in PBS to each well. Assay plates were incubated in the dark for
(§10) (1 picture or pasted object on this page, not shown here)
(§11) 4 h at 37 °C. Fluorescence was measured at 531 nm and 595 nm excitation and emission wavelengths,
(§12) respectively, using a 2104 EnVision® multilabel plate reader. The viability of each well was normalized to
(§13) positive and negative controls in each assay plate. Dose-response curves were generated and CC50 values
(§14) calculated with GraphPad Prism, version 9.3 (San Diego, CA) using a sigmoidal four parameter logistic
(§15) curve. The means ± standard deviations from three biological replicates are shown.
(§16) (1) O'Brien, J.; Wilson, I.; Orton, T.; Pognan, F. Investigation of the Alamar Blue (resazurin) fluorescent
(§17) dye for the assessment of mammalian cell cytotoxicity. Eur. J. Biochem. 2000, 267 (17), 5421-5426.

[2] = Brain-to-plasma ratio in mice; type: in vivo; conditions: mouse, ip, 1 h post-administration, i.p. 1.5 mg/kg, read-out: brain-to-plasma ratio (B/P)
[3] = test system: AcTub levels in OA-treated primary mouse cortical neurons; assay: Okadaic acid (OA) assay, AcTub ELISA in primary mouse cortical neurons; type: cell-based; conditions: OA 15 nM, 8 h, compound 1 and 10 μM
Method: To further evaluate the activity of Class I alkyne derivatives and hybrid compounds, several compounds were also assessed for their ability to compensate for MT deficits in primary neuron cultures that were treated with the phosphatase inhibitor, okadaic acid (OA). As previously described,[11] treatment of rodent neurons with OA results in tau hyperphosphorylation and MT collapse that presumably results, at least in part, from tau disengagement from MTs. Co-treatment of neurons with Class I TPDs, such as 1, along with OA prevents this MT collapse, with a resulting normalization of MT structure and neuronal processes which can be observed upon visual inspection of the neurons or through an assessment of neuronal AcTub levels, while Class II TPDs are generally unable to provide meaningful compensation of MT deficits, especially when tested at higher (i.e., 10 μM) compound concentration.[11],[12]
Figure 4 ELISA determination of AcTub levels in homogenates from primary rat cortical neurons treated with either vehicle, or OA (15 nM) in the presence of vehicle or TPD 1, 8, 9 (A); and primary mouse cortical neurons treated with vehicle, or OA (15 nM) in the presence of vehicle or TPD 1, 24, 45, 46, 53, 54 (B). Error bars represent SEM, with ***, p < 0.001 relative to vehicle treatment in the absence of OA as determined by one-way ANOVA.
Compound-induced changes in acetylated-tubulin and α-tubulin in QBI293 cells or primary mouse or rat neurons were as previously described.[11],[12] For compound testing, QBI293 cells were plated at a density of 2 × 10^5 cells/well in 12-well plates. The plated cells were incubated overnight, after which the medium was aspirated and fresh medium containing vehicle (0.25–0.3% DMSO) or test compound was added. Test compounds were prepared as 4–20 mM stock solutions in 100% DMSO, and these were diluted in culture medium prior to addition to the QBI293 cells. After 4 h incubation, whole-cell extracts were prepared from the QBI293 cells as described[11] and the supernatant fraction from each sample was assessed for protein content by bicinchoninic acid (BCA) assay. The amount of acetyl-tubulin (AcTub) and α-tubulin (αTub) within the cell extract samples was quantified using specific enzyme-linked immunosorbent assays (ELISA), as previously described.[11] Acetyl-tubulin levels were determined in a similar manner in rat or mouse cortical neuron cultures in which embryonic dissociated cortical neurons were plated at 3 × 10^5 cells/well in poly-D-lysine-coated 12-well plates, essentially as previously described.[11] The neurons were allowed to grow for 10 days before they were treated for 8 h with 15 nM okadaic acid in the presence or absence of test compound prepared as described above, or vehicle (0.25% DMSO). Culture homogenates were prepared for the determination of AcTub levels by ELISA as previously described.[11]
VehicleVehicleVehicleVehicle25 (1 µM)
Figure S2. Assessment of AcTub levels in primary mouse cortical neurons treated with vehicle,
as §10

[4] = Resazurin cell viability assay, HeLa; type: cell-based; conditions: human, HeLa cells, three biological replicates, read-out: HeLa CC50 ± SD
Method: as §1, §2, §3, §4, §5, §6, §7, §8, §9, §10, §11, §12, §13, §14, §15, §16, §17

## C[C@@H](Nc1c(-c2c(F)cc(C#CCCO)cc2F)c(Cl)nc2ncnn12)C(C)(C)C [Compound 53, (R)-4-(4-(5-Chloro-7-((3,3-dimethylbutan-2-yl)amino)-[1,2,4]triazolo[1,5-a]pyrimidin-6-yl)-3,5-difluorophenyl)but-3-yn-1-ol]
[1]
  CC50 at 48 h: 0.0301 ± 0.0048 µM
[2]
  Kp at 1 h: ~0.5
[3]
  prevention/correction of OA-induced MT collapse (AcTub levels): can prevent the OA-induced MT collapse
[4]
  CC50 at 48 h: 0.0308 ± 0.0047 µM
